Results on one compound are retold here after patent publication US20150299648A1, “IMPROVED CULTIVATION MEDIA AND PROCESS FOR IMPROVED PROTEIN PRODUCTION BY PICHIA STRAINS” (priority 2012, published 2015).

For test [1], the system named is P. pastrois strain yGLY21058. Briefly: Fermentability of sugars or sugar alcohols on M agar plate. The class given is cell-based, Pichia pastoris. To be noted: 6 days at 30° C. As to the method: The 1 mL of RCB (Research Cell Bank in 20% of glycerol) for P. pastrois strain yGLY21058 producing glycosylated insulin precursor (GIP) was inoculated in 200 mL of Seed medium (4% glycerol, 1% yeast extract, 2% soytone, 1.34% YNB without amino acids, 0.23% K2HPO4, 1.19% KH2PO4, 8 μg/L biotin) and cultivated for 48 h at 24° C. The cell pellet was harvested by centrifugation at 4,000 rpm for 10 min and re-suspended with PBS buffer (pH 7.4) to wash the cell twice. The 0.1 mL of cell suspension with wash buffer was transferred and spread onto the minimal agar plate containing each sugar or sugar alcohol (1% w/v), which is listed in Table 1.
YPD (1% yeast extract, 2% yeast peptone, and 1% glucose) agar plate was used for the positive control and a minimal agar plate without carbon sources (M) was used for negative control. Growth of Pichia pastoris on M agar plate containing single carbon source was categorized as no (−), slow (+), moderate (++), and fast (+++) colony formation for 6 days in Table 1.

The test system of test [2] is P. pastoris YGLY21058 strain producing glycosylated insulin precursor (GIP). The experiment in a line: Screening of sugars and sugar alcohols as osmoprotectants in fed-batch cultivation. Format: cell-based, Pichia pastoris. As to the method: The P. pastoris YGLY21058 strain was cultivated in 1 L glass bioreactors (DASGIP, Germany). For fermentation in 1 L bioreactor, a vial (1 mL) of RCB (Research Cell Bank) was inoculated into 200 mL of Seed medium in 1 L-baffled flask. The culture incubated at 24° C., while shaking on an orbital shaker at 180 rpm for 48±4 h. The bioreactor was inoculated with a 10% volumetric ratio of seed to initial BSGY medium. Cultivation conditions were following: temperature set at 24±0.5° C., pH controlled at 6.5±0.1 with 30% ammonium hydroxide, dissolved oxygen was maintained at 20% of saturation by cascading agitation rate on the addition of pure oxygen to the fixed airflow rate of 0.7 vvm. After depletion of the initial glycerol (4%), a 50% glycerol solution containing 12.5 mL/L of PTM1 salts (6.5 g FeSO4.7H2O, 2.0 g ZnCl2, 0.6 g CuSO4.5H2O, 3.0 g MnSO4.7H2O, 0.5 g CoCl2.6H2O, 0.2 g NaMoO4.2H2O, 0.2 g biotin, 80 mg NaI, 20 mg H3BO4 per L) was fed constantly at an initial rate of 0.08 h^−1 for 8 h. Induction was initiated after a 30 min starvation phase when methanol was fed. Methanol was fed constantly starting at 1.33 g/L/h under methanol limited condition. Agitation speed was changed from cascade mode with agitation speed and pure oxygen.
For comparisons, each sugar or sugar alcohol was added at 50 g/L in initial batch medium of BSGY. In case of control without sugar supplementation (BSGY medium only), glycosylated insulin precursor (GIP) was detectable at 58 h of induction, but not detected at 80 h of induction due to most likely proteolytic degradation caused by heavy cell lysis (Lanes 1 and 2 of FIG. 2 A).

SMILES strings stand for the structures.

Take `OC[C@@H](O)[C@@H](O[C@H]1O[C@H](CO)[C@@H](O)[C@H](O)[C@H]1O)[C@H](O)[C@@H](O)CO` [Maltitol, 4-O-α-glucopyranosyl-D-sorbitol]: the “Fermentability category from colony formation on the plate” value in test [1] (minimal agar plate) was “strict non-fermentable substrates”. Moreover, the “Growth on M agar” value in test [1] (single carbon source 1% w/v) is “−”. The “Intact insulin precursor produced” value in test [2] (2% maltitol, 83 h of post-induction) was “intact protein was produced”. The “Index of cell lysis (double stranded DNA released into culture medium)” value in test [2] (50 g/L in initial batch BSGY, 80 h of induction) is recorded as less than 1 mg DNA/L. In test [2] (50 g/L in initial batch medium of BSGY), the “Intact GIP molecule after 80 h-induction (SDS-PAGE)” value was “intact GIP molecule was maintained”. For the same compound, in test [2] (80 h of induction), the “Intact GIP produced” value was 100 mg/L. In addition, in test [2] (methanol induction phase of cultivation), the “Robustness of Pichia production strains” value is on record as “significantly improved the robustness”. Also, in test [2] (vs control without supplementation), the “Volumetric productivity of GIP/insulin relative to control” value is reported as 2 fold.
